# Laboratory results reported in patent publication US20190185509A1, “2'2' CYCLIC DINUCLEOTIDES WITH PHOSPHONATE BOND ACTIVATING THE STING ADAPTOR PROTEIN” (INSTITUTE OF ORGANIC CHEMISTRY AND BIOCHEMISTRY ASCR, V.V.I., priority 2017, published 2019).
# Key:
# AQ STING (G230A-R293Q) = target: T1, AQ STING (G230A-R293Q) (Homo sapiens, UniProt Q86WV6, G230A/H232R/R293Q); assay: Differential Scanning Fluorimetry (DSF) with AQ STING; format: binding; conditions: thermal shift vs apoprotein; truncated human AQ STING 0.1 mg/ml; 150 μM CDN
# T1 construct: truncated human WT STING or AQ STING (amino acid residues 140-343) with N-terminal 8×His and SUMO tag; 8xHis-SUMO (N, cleaved yes); made in house; host or cells: E. coli Rosetta-gami B (DE3)
# Protocol: (§1) WT STING and AO STING Proteins
# (§2) Purified PCR products were cleaved with restriction enzymes BamHI (cat. #R0136S, NEB, Ipswich, USA) and NotI (cat. #R0189S, NEB, Ipswich, USA) and cloned into the pSUMO vector linearized with the identical enzymes.
# (§3) DNase I (cat. #D5025, Sigma Aldrich, Czech Republic) and RNase A (cat. #R6513, Sigma Aldrich, Czech Republic) were added (final concentration 50 μg/ml) together with MgCl2 (final concentration 5 mmol·l^−1) to the homogenate and bacteria were lysed using French Press G-M™ High-Pressure Cell Press Homogenizer (1500 psi, 3 cycles). […] The resin was poured into a chromatography column, washed with 50 ml buffer A (50 mmol·l^−1 TrisCl (pH 8.0), 800 mmol·l^−1 NaCl, 3 mmol·l^−1 β-mercaptol; 10% glycerol; 20 mmol·l^−1 imidazole) and 8-His-SUMO tagged STING proteins were eluted with 15 ml buffer A containing 300 mmol·l^−1 imidazole. […] Proteins were concentrated with Amicon® Ultra-15 10 K device (cat. #UFC901008, Merck Millipore, Billerica, USA) and flash frozen in liquid N2.
# (§4) Differential Scanning Fluorimetry with WT STING and AQ STING
# (§5) 20 μL solutions of the reaction mixtures were pipetted in triplicates into 96 well optical reaction plates and thermal denaturation of samples were performed on real time PCR cycler (LightCycler R 480 Instrument II-Roche, Basel, Switzerland). The first derivative of the thermal denaturation curves was performed to calculate denaturing temperatures of STING-CDN complexes and STING apoproteins. The thermal shift for each CDN was calculated by subtracting the average denaturing temperature of STING apoprotein from the average denaturing temperature of STING CDN complex.
# WT STING [1] = target: T2, WT STING (Homo sapiens, UniProt Q86WV6, H232R); assay: Digitonin assay using 293T wtSTING-FL reporter cells; format: cell-based; conditions: 293T wtSTING-FL cells, ISRE firefly luciferase reporter; 30 min in Digitonin buffer, then 5 hours; 8-point dose-response
# Text: ISRE Reporter Plasmid (pGL64.27-4×ISRE)
# Two complementary oligonucleotides of the sequence […] […] […] […] […] […] […] The oligonucleotides were mixed in equal molar amounts, hybridized, and cleaved by restriction endonucleases HindIII (cat. #. R0104S, NEB, Ipswich, USA) and BglII (cat. #R0144S, NEB, Ipswich, USA). Ultimately, they were ligated into plasmid pGL4.27 (cat. #E6651, Promega, Madison, USA) linearized with the same enzymes. As result the sequence with four ISRE sites was placed upstream of the minimum promoter of firefly luciferase reporter gene.
# After 5 minutes incubation at room temperature (RT), 250 μL of the mixture was added dropwise to the cells in one well. Cells were incubated 36 hours at 37° C. with 5% CO2, and then detached with 0.05% Trypsin and 0.22 g/L EDTA (both cat. #L0941, Biowest, Riverside, USA).
# Transfected cells were seeded onto poly-D-lysine coated six well plates at density 50,000 cells per 1 cm^2 in DMEM medium with high glucose containing 10% heat inactivated FBS, 30 μg/mL blasticidin (cat. #ant-bl-05, InvivoGen, San Diego, USA), 0.06 mg/ml Penicillin G and 0.1 mg/ml Streptomycin Sulfate (both cat. #. L0018, Biowest, Riverside, USA). The medium was replenished every 3-4 days until visible colonies of cells resistant to blasticidin were formed.
# Blasticidin resistant cells stably expressing WT STING were further transfected with pGL64.27-4×ISRE plasmid following the same procedure as described above. […] Homogeneous culture of stably double transfected cells was prepared by limiting dilution of cells in 96 well plates and wells with cells were selected that originated from a single cell.
# The medium was removed next day and three fold serial dilutions of compounds in Digitonin buffer containing 50 mmol·l^−1 HEPES (cat. #H3375, Sigma Aldrich, Czech Republic) pH 7.0, 100 mmol·l^−1 KCl, 3 mmol·l^−1 MgCl2, 0.1 mmol·l^−1 DTT (cat. #D0632, Sigma Aldrich, Czech Republic), 85 mmol·l^−1 Sucrose (cat. #S7903, Sigma Aldrich, Czech Republic), 0.2% BSA (cat. #A2153, Sigma Aldrich, Czech Republic), 1 mmol·l^−1 ATP (cat. #A1852, Sigma Aldrich, Czech Republic), 0.1 mmol·l^−1 GTP (cat. #G8877, Sigma Aldrich, Czech Republic), and 10 μg/mL Digitonin A (cat. #D141, Sigma Aldrich, Czech Republic) were added to the cells. The buffer was removed after 30 minutes incubation at 37° C. with 5% CO2, the cells were washed once with 100 μl of cultivation medium, and 100 μl of medium was added to each well. The plates with cells were incubated for 5 hours at 37° C. with 5% CO2, 50 μl of the medium was removed and 30 μl of ONE-Glo™ Luciferase Assay System reagent (cat. #E6120, Promega, Madison, USA) was added to each well. Luminescence was read on Synergy H1 (Biotek, Winooski, USA).
# Target sequence in this assay (Q86WV6 whole entry H232R): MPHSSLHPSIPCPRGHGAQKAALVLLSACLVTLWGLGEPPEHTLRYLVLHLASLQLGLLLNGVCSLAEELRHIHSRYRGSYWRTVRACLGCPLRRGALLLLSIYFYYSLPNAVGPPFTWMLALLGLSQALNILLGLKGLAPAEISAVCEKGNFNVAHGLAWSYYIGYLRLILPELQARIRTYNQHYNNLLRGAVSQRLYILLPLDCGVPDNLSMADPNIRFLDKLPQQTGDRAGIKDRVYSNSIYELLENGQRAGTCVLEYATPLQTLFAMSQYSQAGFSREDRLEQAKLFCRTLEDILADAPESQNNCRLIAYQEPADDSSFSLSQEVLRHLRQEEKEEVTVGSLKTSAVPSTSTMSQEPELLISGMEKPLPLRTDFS
# WT STING [2] = target: T2, WT STING; assay: Differential Scanning Fluorimetry (DSF) with WT STING; format: binding; set-up: truncated human WT STING or AQ STING (amino acid residues 140-343) with N-terminal 8×His and SUMO tag; 8xHis-SUMO (N, cleaved yes); made in house; host or cells: E. coli Rosetta-gami B (DE3); conditions: thermal shift vs apoprotein; truncated human WT STING 0.1 mg/ml; 150 μM CDN
# Protocol: as §1, §2, §3, §4, §5
# Target sequence in this assay (Q86WV6 140-343 H232R): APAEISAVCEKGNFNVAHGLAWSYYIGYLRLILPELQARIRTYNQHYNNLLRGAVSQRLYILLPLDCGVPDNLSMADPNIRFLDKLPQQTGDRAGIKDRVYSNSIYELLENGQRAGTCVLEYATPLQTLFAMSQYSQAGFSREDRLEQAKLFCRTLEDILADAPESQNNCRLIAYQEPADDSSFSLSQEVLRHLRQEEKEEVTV
# T1 sequence (Q86WV6 140-343 G230A/H232R/R293Q): as the sequence (Q86WV6 140-343 H232R) above, with G91A, R154Q counted along it
smiles,measurement,setting,value
"Nc1ncnc2c1ncn2[C@@H]1O[C@@H]2COP(=O)(O)O[C@@H]3[C@H](O)[C@@H](COCP(=O)(O)O[C@@H]1[C@@H]2O)O[C@H]3n1cnc2c(N)ncnc21 [Compound 12, (1R,6R,8R,9R,15R,17R,18R,19R)-8,17-bis(6-amino-9H-purin-9-yl)-3,11,18,19-tetrahydroxy-2,4,7,10,13,16-hexaoxa-3,11-diphosphatricyclo[13.2.1.1^6,9]nonadecane 3,11-dioxide]",DSF ΔTm AQ STING,AQ STING (G230A-R293Q),6.3 °C
same,EC50,WT STING [1],6 µM
same,DSF ΔTm WT STING,WT STING [2],2.0 °C
"Nc1ncnc2c1ncn2[C@@H]1O[C@@H]2COP(=O)(O)O[C@H]3[C@H](O)[C@@H](COCP(=O)(O)O[C@@H]1[C@@H]2O)O[C@H]3n1cnc2c(N)ncnc21 [Compound 15, (1S,6R,8R,9R,15R,17R,18R,19R)-8,17-bis(6-amino-9H-purin-9-yl)-3,11,18,19-tetrahydroxy-2,4,7,10,13,16-hexaoxa-3,11-diphosphatricyclo[13.2.1.16,9]nonadecane 3,11-dioxide]",DSF ΔTm AQ STING,AQ STING (G230A-R293Q),5.5 °C
same,EC50,WT STING [1],16.4 µM
same,DSF ΔTm WT STING,WT STING [2],1.7 °C
"Nc1ncnc2c1ncn2[C@@H]1O[C@@H]2OCP(=O)(O)O[C@@H]3[C@H](O)[C@@H](OCP(=O)(O)O[C@@H]1[C@@H]2O)O[C@H]3n1cnc2c(N)ncnc21 [Compound 11, (1R,6R,8R,9R,14R,16R,17S,18S)-8,16-bis(6-amino-9H-purin-9-yl)-3,11,17,18-tetrahydroxy-2,5,7,10,13,15-hexaoxa-3,11-diphosphatricyclo[12.2.1.1^6,9]octadecane 3,11-dioxide]",DSF ΔTm AQ STING,AQ STING (G230A-R293Q),7.9 °C
same,EC50,WT STING [1],4.2 µM
same,DSF ΔTm WT STING,WT STING [2],2.5 °C
"C[C@]12OCP(=O)(O)O[C@H]3[C@H](n4cnc5c(N)ncnc54)O[C@](C)(OCP(=O)(O)O[C@@H]([C@H](n4cnc5c(N)ncnc54)O1)[C@@H]2O)[C@H]3O [Compound 13, (1R,6R,8R,9R,14R,16R,17S,18S)-8,16-bis(6-amino-9H-purin-9-yl)-3,11,17,18-tetrahydroxy-6,14-dimethyl-2,5,7,10,13,15-hexaoxa-3,11-diphosphatricyclo[12.2.1.1^6,9]octadecane 3,11-dioxide]",DSF ΔTm WT STING,WT STING [2],0.6 °C
"Nc1ncnc2c1ncn2[C@@H]1O[C@@H]2OCP(=O)(O)O[C@@H]3[C@H](O)[C@@H](COP(=O)(O)O[C@@H]1[C@@H]2O)O[C@H]3n1cnc2c(N)ncnc21 [Compound 14, (1R,6R,8R,9R,14R,16R,17S,18R)-8,16-bis(6-amino-9H-purin-9-yl)-3,11,17,18-tetrahydroxy-2,4,7,10,13,15-hexaoxa-3,11-diphosphatricyclo[12.2.1.1^6,9]octadecane 3,11-dioxide]",DSF ΔTm AQ STING,AQ STING (G230A-R293Q),20.8 °C
same,EC50,WT STING [1],2.35 µM
same,DSF ΔTm WT STING,WT STING [2],0.7 °C
